{"source": "patent US6511993B1", "about": "“Metalloprotease inhibitors” (priority 1999, dated 2003)", "origin": "cited, not measured here", "tested_on": "human ovarian carcinoma xenografts", "conditions": "mice carrying human ovarian carcinoma xenografts; Cancer Res., 1993, 53, 2087; cited from earlier work"}
{"smiles": "CNC(=O)[C@H](Cc1ccccc1)NC(=O)[C@H](CC(C)C)[C@H](CSc1cccs1)C(=O)NO", "note": "[BB-94]", "values": [{"measurement": "survival", "value": "prolong the survival"}, {"measurement": "tumour burden", "value": "decrease the tumour burden"}]}
